Legend:
Type in all cases: binding
HfsK (CC3689) [1] = target: T1, HfsK (CC3689) (Caulobacter vibrioides, UniProt Q9A277, R102A); assay: UV cross-linking with […]c-di-GMP; conditions: StrepII-tagged, 1 uM protein; labelled compound
T1 construct: gene CC_3689; full length; His-tagged (ITC) or StrepII-tagged (mutants, UV cross-linking), expressed in E. coli; tags kept as far as told

HfsK (CC3689) [2] = target: T2, HfsK (CC3689) (Caulobacter vibrioides, UniProt Q9A277, R267A); assay: UV cross-linking with […]c-di-GMP; conditions: StrepII-tagged, 1 uM protein; labelled compound
T2 construct: gene CC_3689; full length; His-tagged (ITC) or StrepII-tagged (mutants, UV cross-linking), expressed in E. coli; tags kept as far as told
T2 sequence (Q9A277 entry or part of it R267A): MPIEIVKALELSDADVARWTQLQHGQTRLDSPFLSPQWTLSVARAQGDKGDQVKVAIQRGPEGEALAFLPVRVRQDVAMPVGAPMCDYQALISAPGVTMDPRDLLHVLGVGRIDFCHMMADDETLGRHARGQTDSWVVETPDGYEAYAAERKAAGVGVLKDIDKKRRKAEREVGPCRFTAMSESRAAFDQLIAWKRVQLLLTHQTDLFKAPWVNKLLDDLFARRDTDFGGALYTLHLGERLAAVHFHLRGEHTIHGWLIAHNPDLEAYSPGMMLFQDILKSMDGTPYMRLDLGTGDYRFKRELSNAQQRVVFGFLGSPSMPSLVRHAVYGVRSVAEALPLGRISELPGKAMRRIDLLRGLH

HfsK (CC3689) [3] = target: T3, HfsK (CC3689) (Caulobacter vibrioides, UniProt Q9A277, R112A); assay: UV cross-linking with […]c-di-GMP; conditions: StrepII-tagged, 1 uM protein; labelled compound
T3 construct: gene CC_3689; full length; His-tagged (ITC) or StrepII-tagged (mutants, UV cross-linking), expressed in E. coli; tags kept as far as told
T3 sequence (Q9A277 entry or part of it R112A): as the sequence (Q9A277 entry or part of it R267A) above, with R112A, A267R counted along it

HfsK (CC3689) [4] = target: T4, HfsK (CC3689) (Caulobacter vibrioides, UniProt Q9A277); assay: isothermal titration calorimetry
T4 construct: gene CC_3689; full length; His-tagged (ITC) or StrepII-tagged (mutants, UV cross-linking), expressed in E. coli; tags kept as far as told
T4 sequence (Q9A277 entry or part of it): as the sequence (Q9A277 entry or part of it R267A) above, with A267R counted along it
Description: isothermal titration calorimetry on HfsK (CC3689) | His-CC3689 bound c-di-GMP in a concentration-dependent manner with an equilibrium disassociation constant (Kd)

HfsK (CC3689) [5] = target: T5, HfsK (CC3689) (Caulobacter vibrioides, UniProt Q9A277, R240A); assay: UV cross-linking with […]c-di-GMP; conditions: StrepII-tagged, 1 uM protein; labelled compound
T5 construct: gene CC_3689; full length; His-tagged (ITC) or StrepII-tagged (mutants, UV cross-linking), expressed in E. coli; tags kept as far as told
T5 sequence (Q9A277 entry or part of it R240A): as the sequence (Q9A277 entry or part of it R267A) above, with R240A, A267R counted along it

HfsK (CC3689) [6] = target: T6, HfsK (CC3689) (Caulobacter vibrioides, UniProt Q9A277, R151A); assay: UV cross-linking with […]c-di-GMP; conditions: StrepII-tagged, 1 uM protein; labelled compound
T6 construct: gene CC_3689; full length; His-tagged (ITC) or StrepII-tagged (mutants, UV cross-linking), expressed in E. coli; tags kept as far as told
T6 sequence (Q9A277 entry or part of it R151A): as the sequence (Q9A277 entry or part of it R267A) above, with R151A, A267R counted along it

T1 sequence (Q9A277 entry or part of it R102A): as the sequence (Q9A277 entry or part of it R267A) above, with R102A, A267R counted along it

Nc1nc2c(ncn2[C@@H]2O[C@@H]3COP(=O)(O)O[C@H]4[C@@H](O)[C@H](n5cnc6c(=O)[nH]c(N)nc65)O[C@@H]4COP(=O)(O)O[C@H]3[C@H]2O)c(=O)[nH]1 [c-di-GMP]
UV cross-linking with [33P]c-di-GMP (HfsK (CC3689) [1]): residues of HfsK (R102, R112, R151, R240, and R267) were replaced with alanine
UV cross-linking with [33P]c-di-GMP (HfsK (CC3689) [2]): residues of HfsK (R102, R112, R151, R240, and R267) were replaced with alanine
UV cross-linking with [33P]c-di-GMP (HfsK (CC3689) [3]): HfsKR112a as the only mutant variant with reduced binding affinity for c-di-GMP
Kd (HfsK (CC3689) [4]): 724 nM
UV cross-linking with [33P]c-di-GMP (HfsK (CC3689) [5]): residues of HfsK (R102, R112, R151, R240, and R267) were replaced with alanine
UV cross-linking with [33P]c-di-GMP (HfsK (CC3689) [6]): residues of HfsK (R102, R112, R151, R240, and R267) were replaced with alanine

Reference: PMC5362036, “Cohesive Properties of the Caulobacter crescentus Holdfast Adhesin Are Regulated by a Novel c-di-GMP Effector Protein” (mBio, 2017)
